Holding throughout (format): cell-based, human
One test relates to CD4 T cells. The test can be described thus: IL2 ELISA, T cells repeatedly stimulated with anti-CD3/CD28 beads (in vitro exhaustion model). The following applies: T cells continuously with Ezh2 inhibitor (10 nmol), after the 4th stimulation. As for the experimental part: (§1) In experiments using p38MAPK, JNK, MEK1 and Ezh2 inhibitors, cells were grown in the continued presence of inhibitors. After each wash and activation step, cells were treated with a fresh batch of inhibitors. The following inhibitors were used: MAPKp38-SB202190 (10 μmol/ml) (Sigma, cat. S7067), JNK-SP600125 (10 μmol/ml) (Sigma, cat. S5567), MEK1-PD98059 (5 μmol/ml) (Calbiochem, cat. 513001), MEK1/2-inhibitor III (5 μmol/ml) (Calbiochem, cat. 444966) and Ezh2-[…] (10 nmol) (Millipore, cat. 505052). DMSO was used as a mock treatment. The specificity of p38MAPK, JNK and MEK1 inhibitors to block the downstream kinases, phospho-ATF2, phospho-cJun and phospho-ERK, respectively, was confirmed by westerns (FIG. 18A).
(§2) ELISA assays were performed using human IL2 and IFNγ Ready-SET-Go kits (eBioscience). Three replicates were included for each experimental set and each experiment was repeated three or more times. ELISA was performed on the supernatant saved from each stimulation step. CD4+ or CD8+ T cells were stimulated with anti-CD3/CD28 beads and cultured for 48 hours, after which cells were spun down and supernatants carefully removed and saved at −20° C. The same procedure was followed for the rest of the stimulation steps.
Human T cell isolation and culture in vitro. […] 48 hours after the first stimulation, cells were counted and washed, and beads were removed using a magnet. […]
(In general: An ELISA detects its analyte on a solid surface through an enzyme-linked reagent.)

The next test concerns H3-K27 trimethylation. The test can be described thus: Western blot for H3K27me3 in repeatedly stimulated T cells. The settings on record: inhibitor maintained in activation cultures; FIG. 2D. As for the experimental part:
as §1
(§3) For denaturing westerns, 20-40 μg of protein extracted from T cells was used. RIPA lysis buffer (Sigma, cat. R0278) was used to prepare whole cell extracts. For native gel analysis, cells were lysed in native lysis buffer (50 mM Tris-Cl, pH 8.0; 1% NP40; 150 mM NaCl, 100 μg leupeptin, 1 mM PMSF, 5 mM orthovanadate). For both native and denaturating conditions, samples were resolved on 4-15% TGX precast gels (Bio-Rad, cat. 456-1084) with the difference in running buffer. Native samples were run without SDS. […]
In general terms: In western blotting, separated proteins are transferred to a membrane and probed.

Test [1] has as its system H3-K27 trimethylation of the IL2 promoter. The test is described as follows: ChIP with anti-H3K27me3 antibody and qPCR for IL2 promoter. The settings on record: repeatedly stimulated CD4 T cells; FIG. 2E. On the procedure:
Chromatin immunoprecipitation assay. The ChIP assay was performed using a ChIP-IT high sensitivity kit (Active Motif, cat. 53040), following the manufacturer's recommended protocol. Human CD4+ T cells were repeatedly activated with CD3/CD28 beads in the continued presence of Ezh2 inhibitor or transfected with YY1 shRNA and a control after 2nd stimulation. Approximately 15 μg of chromatin was used in each reaction with an antibody that specifically recognizes H3K27me3 (Active Motif, cat. 39155). Fold enrichment was calculated relative to IgG and input.
In general terms: In qPCR the cycle at which signal appears reflects the starting amount.

The test system of a further test is T cells. The test is described as follows: IFNγ ELISA, repeatedly stimulated T cells. The settings on record: FIG. 16. As for the experimental part: as §2
Human T cell isolation and culture in vitro. CD4+ and CD8+ T cells were enriched from peripheral blood mononuclear cells obtained from healthy donors. Leukoreduction filters from Boston Children's Hospital that were processed using histopaque (Sigma) cushions to separate PBMCs were used. Human CD8+ and CD4+ cells were enriched using naïve CD8 and CD4 T cell enrichment cocktail (BD Biosciences, cat. 51-900481 and 9002314, respectively). […] Cells were stimulated the same day with T-Activator CD3/CD28 dynabeads (Life Technologies, cat. 11131D) following the manufacturer's recommendations. 48 hours after the first stimulation, cells were counted and washed, and beads were removed using a magnet. This was followed by a second, third and fourth round of stimulations with fresh batches of CD3/CD28 beads. […]

The subject of another test is CEA-CAR T cells. The test is described as follows: IL2 ELISA in MIPCEA/CAR-T cell cocultures. The settings on record: 2nd generation CAR-T, MIPCEA cocultures; Ezh2 inhibitor 10 nm or nivolumab 20 μg/ml. As for the experimental part:
as §2
To produce second generation CEA-CAR T cells, T cells were modified by retroviral gene therapy to express a single chain antibody domain (sFv) that recognizes CEA tumor antigen. This anti-CEA binding domain is fused together with the full length sequence of CD28 co-stimulatory molecule and sequences of the signaling chain of the CD3 complex (signal 1+2) (FIG. 6A) (Nolan et al., 1999). The clinical grade CEA-CAR vector producing cells have been successfully tested in a number of in vitro studies as well as in a clinical setting to modify T cells for breast cancer clinical trials (Katz et al., 2015). […]
MIP101 and MIPCEA, tumor cell coculture with CEA-CAR modified T cells. […] Each time after the coculture, tumor cells were trypsinized (cellgro) and counted.

For another test, the system named is MIPCEA cells. The following applies: by the 3rd co-culture; Ezh2 inhibitor 10 nm. From the text: To produce second generation CEA-CAR T cells, T cells were modified by retroviral gene therapy to express a single chain antibody domain (sFv) that recognizes CEA tumor antigen. This anti-CEA binding domain is fused together with the full length sequence of CD28 co-stimulatory molecule and sequences of the signaling chain of the CD3 complex (signal 1+2) (FIG. 6A) (Nolan et al., 1999). The clinical grade CEA-CAR vector producing cells have been successfully tested in a number of in vitro studies as well as in a clinical setting to modify T cells for breast cancer clinical trials (Katz et al., 2015). The first generation CEA-CAR contains anti-CEA binding domain fused with signaling chain (signal 1) (Nolan et al., 1999 Clin Cancer Res 5, 3928-3941). Transduction of T cells with anti CEA-CAR vector were as previously described (Beaudoin et al., 2008 Nat Med 9, 540-547).
MIP101 and MIPCEA, tumor cell coculture with CEA-CAR modified T cells. MIP101 is a CEA-undifferentiated human carcinoma cell line derived from liver metastases of colonic adenocarcinoma patients. The MIPCEA cell line was generated by stably expressing the full length CEA gene in MIP101 cells (Thomas et al., 1995 Cancer Lett 92, 59-66). […] Each time after the coculture, tumor cells were trypsinized (cellgro) and counted.

The next test deals with YY1 promoter. The test can be described thus: YY1 promoter luciferase reporter assay in restimulated T cells. The following applies: after four stimulations, continued presence of inhibitor; FIG. 5C upper. On the procedure:
Human YY1 promoter luciferase construct YY1-pGLuc-basic was a kind gift from Dr. Guangchao Sui of Wake Forest Health Sciences, NC (Huang et al., 2012 Nucleic Acids Res 40, 1033-1049). The cJun/ATF2 octameric palindrome cyclic AMP-response element (CRE), 5′-[…]-3′(SEQ ID NO: 40), was mutated to 5′-cGgCaTaA-3′ (SEQ ID NO: 41) using the service of GenScript Inc. (Item cat. 426354-1).
The reporter assays and plasmid overexpression were performed in 6 well tissue culture plates. 5×10^6 T cells were transfected with plasmids using Amaxa human T cell nucleofector Kit, cat. VPA-1002 (Lonza). Transfections were performed using Amaxa nucleofector II device, program no. T-023/T-020. Luciferase assays were generally performed 48 hours after transfections. […] The YY1 promoter luciferase assay was measured from T cell culture supernatants using BioLux Gaussia lucferase assay kit (New England Biolabs, cat. no. E3300S). Amounts of transfected plasmids were kept proportionally constant. Samples were assayed for reporter activity using a Gloma 20/20 Luminometer (Promega), essentially using the recommended parameters provided by the reagent suppliers.
In experiments using p38MAPK, JNK, MEK1 and Ezh2 inhibitors, cells were grown in the continued presence of inhibitors. After each wash and activation step, cells were treated with a fresh batch of inhibitors. […]

For test [2], the system named is phospho-ATF2, phospho-cJun and phospho-ERK. The test is described as follows: Kinase activities by western blot (inhibitor specificity). The following applies: respectively, westerns, FIG. 18A. As for the experimental part:
as §1, §3

The test system of the next test is YY1. The test is described as follows: Western blot of YY1 protein in T cells grown with kinase inhibitors. The settings on record: same cells as reporter assay; FIG. 5C lower. On the procedure: as §1, §3

Regarding `CCCc1cc(C)[nH]c(=O)c1CNC(=O)c1cc(-c2ccc(N3CCN(C(C)C)CC3)nc2)cc2c1cnn2C(C)C` [Ezh2 inhibitor], the “IL2 exceeding that of control T cells by a factor” value with CD4 T cells is given as over 40. In the test with H3-K27 trimethylation, the “H3-K27 trimethylation by western” value is given as “suppressed”. Besides, in test [1], the “H3-K27 trimethylation of the IL2 promoter by ChIP/qPCR” value is “suppressed”. The “IFNγ shutdown after repeated T cell stimulation” value in the test with T cells is “does not protect”. Besides, the “IL2 production of CAR-T cells on repeated exposure to tumor cells” value with CEA-CAR T cells is reported as “sustained IL2”. Further, the “net benefit in killing versus untreated CAR-T cells” value with MIPCEA cells is listed as 5 fold.
As for `COc1cccc(-c2cc(=O)c3ccccc3o2)c1N` [MEK1 inhibitor, PD98059], the “YY1 luciferase reporter transcriptional activity” value with YY1 promoter is reported as “no impact”. Besides, the “specificity to block the downstream kinases” value in test [2] was “confirmed”.
Take `Oc1ccc(-c2nc(-c3ccncc3)c(-c3ccc(F)cc3)[nH]2)cc1` [p38MAPK inhibitor, SB202190]: the “YY1 luciferase reporter transcriptional activity” value in the test on YY1 promoter was “suppressed”. Also, in the test with YY1, the “YY1 protein by Western blot” value is on record as “suppressed”. Also, the “specificity to block the downstream kinases” value in [2] is on record as “confirmed”.
On to nivolumab, for which, in the test with CEA-CAR T cells, the “IL2 production of CAR-T cells on repeated exposure to tumor cells” value was “same IL2 loss as control T cells”.

For the origin of these results see patent US11624068B2, “Compositions and methods for improving immune system function” (Tufts Medical Center, Inc., priority 2016, dated 2023).
